Seven compounds from PubChem BioAssay AID1259411 (Chemical Carcinogenesis Research Information System (CCRIS), 2018) can be followed below.

Calls of active or inactive are those of the source. The rule behind the calls is not given here.

This data set deals with rodent carcinogenicity bioassays, tumor incidence. The experiment in a line: CCRIS carcinogenicity studies. The gist of the method:
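NCI-built, expert-reviewed records of carcinogenicity and related test outcomes (mutagenicity, tumor promotion/inhibition) compiled from published and report sources, historical span 1985-2011, not updated.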

Setting [1] is: Species: RAT, Strain/Sex: F344/FEMALE, Route: ORAL, Dose: 40 MG/L IN DRINKING WATER FOR 50 WK, Tumor Site: Type of Lesion: LIVER: HEPATOCELLULAR CARCINOMA, HEMANGIOENDOTHELIAL SARCOMA.

Take `Cc1ccc(S(=O)(=O)O)cc1C`: the carcinogen call by setting is: (Species: MOUSE, Strain/Sex: B6C3F1/FEMALE, Route: DERMAL, Dose: 0, 182, 364, 727 MG/KG IN 50% ETHANOL 5D/WK FOR 105 WK (STUDY DURATION: 105 WK), Dose: 0, 182, 364, 727 MG/KG IN 50% ETHANOL 5D/WK FOR 105 WK (STUDY DURATION: 105 WK)) “inactive; negative”; (Species: MOUSE, Strain/Sex: B6C3F1/MALE, Route: DERMAL, Dose: 0, 182, 364, 727 MG/KG IN 50% ETHANOL 5D/WK FOR 104 WK (STUDY DURATION: 104 WK), Dose: 0, 182, 364, 727 MG/KG IN 50% ETHANOL 5D/WK FOR 104 WK (STUDY DURATION: 104 WK)) “inactive; negative”; (Species: RAT, Strain/Sex: F344/FEMALE, Route: DERMAL, Dose: 0, 60, 120, 240 MG/KG IN 50% ETHANOL 5 D/WK FOR 104 WK (STUDY DURATION: 104 WK), Dose: 0, 60, 120, 240 MG/KG IN 50% ETHANOL 5 D/WK FOR 104 WK (STUDY DURATION: 104 WK)) “inactive; negative”; (Species: RAT, Strain/Sex: F344/MALE, Route: DERMAL, Dose: 0, 60, 120, 240 MG/KG IN 50% ETHANOL 5D/WK FOR 104 WK (STUDY DURATION: 104 WK), Dose: 0, 60, 120, 240 MG/KG IN 50% ETHANOL 5D/WK FOR 104 WK (STUDY DURATION: 104 WK)) “inactive; negative”.

`CN(C)N=Nc1ccccc1`: the carcinogen call (Species: RAT, Strain/Sex: SPRAGUE-DAWLEY/FEMALE, Route: INTRAPERITONEAL, TRANSPLACENTAL, Dose: 0, 1 MG/KG ADMINISTERED TO PREGNANT RATS ON DAY 16, 18 AND 20 OF GESTATION (STUDY DURATION: 1 YR), Tumor Site: Type of Lesion: KIDNEY: RENAL MESENCHYMAL TUMOR) is “active; positive”; the carcinogen call (Species: RAT, Strain/Sex: SPRAGUE-DAWLEY/FEMALE, Route: INTRAPERITONEAL, TRANSPLACENTAL, Dose: 0, 10, 30, 60 MG/KG ADMINISTERED TO PREGNANT RATS ON DAY 20 OF GESTATION (STUDY DURATION: 1 YR), Dose: 0, 10, 30, 60 MG/KG ADMINISTERED TO PREGNANT RATS ON DAY 20 OF GESTATION (STUDY DURATION: 1 YR)) is “inactive; negative”; the carcinogen call (Species: RAT, Strain/Sex: SPRAGUE-DAWLEY/MALE,FEMALE, Route: SUBCUTANEOUS, Dose: 50 MG/KG 1/WK FOR LIFE, Tumor Site: Type of Lesion: BRAIN, NERVOUS SYSTEM (CENTRAL)) was “active; positive”; the carcinogen call (Species: RAT, Strain/Sex: SPRAGUE-DAWLEY/MALE, Route: INTRAPERITONEAL, TRANSPLACENTAL, Dose: 0, 1 MG/KG ADMINISTERED TO PREGNANT RATS ON DAY 16, 18 AND 20 OF GESTATION (STUDY DURATION: 1 YR), Tumor Site: Type of Lesion: BRAIN: TUMOR, DENTITIOUS TISSUE: ODONTOMA) is “active; positive”; the carcinogen call (Species: RAT, Strain/Sex: SPRAGUE-DAWLEY/MALE, Route: INTRAPERITONEAL, TRANSPLACENTAL, Dose: 0, 10, 30, 60 MG/KG ADMINISTERED TO PREGNANT RATS ON DAY 20 OF GESTATION (STUDY DURATION: 1 YR), Dose: 0, 10, 30, 60 MG/KG ADMINISTERED TO PREGNANT RATS ON DAY 20 OF GESTATION (STUDY DURATION: 1 YR)) is “inactive; negative”; the carcinogen call (Species: RAT, Strain/Sex: STRAIN-BD, Route: ORAL, SUBCUTANEOUS, Dose: 24.8, 43.4 MG/KG 1/WK (MEAN TOTAL DOSE 1.5 G/KG), Tumor Site: Type of Lesion: BRAIN, NERVOUS SYSTEM) was “active; positive”.

For the compound `C=C(Cl)CSC(=S)N(CC)CC`, the carcinogen call reads like this: (Species: MOUSE, Strain/Sex: B6C3F1/FEMALE, Route: ORAL, Dose: 0, 908, 1815 PPM TWA, IN DIET FOR 74 WK (STUDY DURATION: 90-91 WK), Dose: 0, 908, 1815 PPM TWA, IN DIET FOR 74 WK (STUDY DURATION: 90-91 WK), Tumor Site: Type of Lesion: MAMMARY GLAND: ADENOCARCINOMA OR SQUAMOUS METAPLASIA) “active; positive”; (Species: MOUSE, Strain/Sex: B6C3F1/MALE, Route: ORAL, Dose: 0, 949, 1897 PPM TWA, IN DIET FOR 74 WK (STUDY DURATION: 91 WK), Dose: 0, 949, 1897 PPM TWA, IN DIET FOR 74 WK (STUDY DURATION: 91 WK), Tumor Site: Type of Lesion: LUNG: ALVEOLAR/BRONCHIOLAR ADENOMA OR ALVEOLAR/BRONCHIOLAR CARCINOMA) “active; positive”; (Species: RAT, Strain/Sex: OSBORNE-MENDEL/FEMALE, Route: ORAL, Dose: 0, 250, 404 PPM TWA, IN DIET FOR 63-78 WK (STUDY DURATION: 104-111 WK), Dose: 0, 250, 404 PPM TWA, IN DIET FOR 63-78 WK (STUDY DURATION: 104-111 WK), Tumor Site: Type of Lesion: MAMMARY GLAND: ADENOCARCINOMA) “active; positive”; (Species: RAT, Strain/Sex: OSBORNE-MENDEL/MALE, Route: ORAL, Dose: 0, 250, 410 PPM TWA, IN DIET FOR 64-78 WK (STUDY DURATION: 103-111 WK), Dose: 0, 250, 410 PPM TWA, IN DIET FOR 64-78 WK (STUDY DURATION: 103-111 WK), Tumor Site: Type of Lesion: STOMACH: PAPILLOMA, SQUAMOUS CELL PAPILLOMA OR SQUAMOUS CELL CARCINOMA) “active; positive”.

As for `CC1OCCN1N=O` (stereo unspecified), the carcinogen call under setting [1] was “active; positive”.

Regarding `O[C@H]1[C@@H]2O[C@@H]2C=C[C@@H]1O`, the carcinogen call (Species: MOUSE, Strain/Sex: SWISS/FEMALE, Route: INTRAPERITONEAL, Dose: 0, 2.7, 13.7 UMOL ADMINISTERED AS 3 UNEQUAL DOSES (1/7, 2/7, AND 4/7 OF THE TOTAL DOSE) OVER A 2-WK PERIOD (STUDY DURATI, Dose: 0, 2.7, 13.7 UMOL ADMINISTERED AS 3 UNEQUAL DOSES (1/7, 2/7, AND 4/7 OF THE TOTAL DOSE) OVER A 2-WK PERIOD (STUDY DURATI) is “inactive; negative” and the carcinogen call (Species: MOUSE, Strain/Sex: SWISS/MALE, Route: INTRAPERITONEAL, Dose: 0, 2.7, 13.7 UMOL ADMINISTERED AS 3 UNEQUAL DOSES (1/7, 2/7, AND 4/7 OF THE TOTAL DOSE) OVER A 2-WK PERIOD (STUDY DURATI, Dose: 0, 2.7, 13.7 UMOL ADMINISTERED AS 3 UNEQUAL DOSES (1/7, 2/7, AND 4/7 OF THE TOTAL DOSE) OVER A 2-WK PERIOD (STUDY DURATI) was “inactive; negative”.

Consider `CC1CN(N=O)CO1` (stereo unspecified), for which the carcinogen call was “active; positive” (Species: HAMSTER, Strain/Sex: SYRIAN/MALE, Route: INTRAGASTRIC, Dose: 0, 25 MG/ML IN 0.2 ML STERILIZED WATER 1/WK FOR 24 WK (TOTAL DOSE 120 MG) (STUDY DURATION: LIFESPAN), Tumor Site: Type of Lesion: LIVER: HEPATOCELLULAR CARCINOMA, ADENOMA, HEMANGIOSARCOMA, CHOLANGIOCARCINOMA, PANCREAS: DUCTAL CARCINOMA) and “active; positive” under setting [1].

On to `O=[N+]([O-])c1ccc(Oc2ccc(Cl)cc2Cl)cc1`, for which the carcinogen call is, setting by setting: (Species: MOUSE, Strain/Sex: B6C3F1/FEMALE, Route: ORAL, Dose: 0, 2348, 4696 PPM IN DIET, TWA, Dose: 0, 2348, 4696 PPM IN DIET, TWA, Tumor Site: Type of Lesion: LIVER: HEPATOCELLULAR CARCINOMA OR NEOPLASTIC NODULE) “active; positive”; (Species: MOUSE, Strain/Sex: B6C3F1/FEMALE, Route: ORAL, Dose: 0, 3000, 6000 PPM IN DIET, Dose: 0, 3000, 6000 PPM IN DIET, Tumor Site: Type of Lesion: LIVER: HEPATOCELLULAR ADENOMA OR CARCINOMA) “active; positive”; (Species: MOUSE, Strain/Sex: B6C3F1/MALE, Route: ORAL, Dose: 0, 2348, 4696 PPM IN DIET, TWA, Dose: 0, 2348, 4696 PPM IN DIET, TWA, Tumor Site: Type of Lesion: LIVER: HEPATOCELLULAR CARCINOMA) “active; positive”; (Species: MOUSE, Strain/Sex: B6C3F1/MALE, Route: ORAL, Dose: 0, 3000, 6000 PPM IN DIET, Dose: 0, 3000, 6000 PPM IN DIET, Tumor Site: Type of Lesion: LIVER: HEPATOCELLULAR ADENOMA OR CARCINOMA) “active; positive”; (Species: RAT, Strain/Sex: F344/FEMALE, Route: ORAL, Dose: 0, 3000, 6000 PPM IN DIET, Dose: 0, 3000, 6000 PPM IN DIET) “inactive; negative”; (Species: RAT, Strain/Sex: F344/MALE, Route: ORAL, Dose: 0, 3000, 6000 PPM IN DIET, Dose: 0, 3000, 6000 PPM IN DIET) “inactive; negative”. Also, for the setting “Species: RAT, Strain/Sex: OSBORNE-MENDEL/FEMALE, Route: ORAL, Dose: 0, 1300, 2600 PPM IN DIET, TWA, Dose: 0, 1300, 2600 PPM IN DIET, TWA, Tumor Site: Type of Lesion: PANCREAS: CARCINOMA”, the carcinogen call is “active; positive”.
